Results from ChEMBL document CHEMBL4819069, “Discovery of multifunctional anti-Alzheimer's agents with a unique mechanism of action including inhibition of the enzyme butyrylcholinesterase and γ-aminobutyric acid transporters” (Eur J Med Chem, 2021).
The source made the active and inactive calls. The calls are words filed in the database; no cut-off is given here.

Legend:
[1] = target: Acetylcholinesterase (Electrophorus electricus) (UniProt O42275); experiment: Inhibition of electric eel AChE at 10 uM using acetylthiocholine as substrate preincubated for 5 mins followed by substrate addition and measured after 5 mins by Ellman's method relative to control; conditions: time 10.0 min
[2] = target: Cytochrome P450 2D6 (Homo sapiens, UniProt P10635); experiment: Inhibition of CYP2D6 (unknown origin) at 10 uM; type: ADME
[3] = target: T1, Beta-secretase 1 (Homo sapiens, UniProt P56817)
[4] = Hepatotoxicity in human HepG2 cells at 1 uM incubated for 72 hrs by MTS assay; type: cell-based; conditions: hepg2, 72 h
[5] = target: T2, Cholinesterase (Homo sapiens, UniProt P06276)
Description: Inhibition of human BuchE using butyrylthiocholine as substrate preincubated for 5 mins followed by substrate addition and measured after 5 mins by Ellman's method

[6] = Hepatotoxicity in human HepG2 cells at 50 to 100 uM incubated for 72 hrs by MTS assay; type: cell-based; conditions: hepg2, 72 h, dose 50-100 µM
[7] = target: Amyloid-beta precursor protein (Homo sapiens) (UniProt P05067); experiment: Inhibition of HFIP-pretreated amyloid beta (1 to 42) (unknown origin) aggregation at 10 uM after 36 to 48 hrs by thioflavin-T fluorescence assay relative to control; conditions: time 36-48 hrs
[8] = target: Cytochrome P450 3A4 (Homo sapiens, UniProt P08684); experiment: Inhibition of CYP3A4 (unknown origin) at 10 uM; type: ADME
[9] = Metabolic stability in human liver microsomes assessed as parent compound remaining after 120 mins in presence of NADPH regeneration system by UPLC/MS anlaysis; type: ADME, Microsome; conditions: read-out: Stabilty
[10] = target: Cholinesterase (Equus caballus, UniProt P81908)
Description: Inhibition of equine serum BuChE using butyrylthiocholine as substrate preincubated for 5 mins followed by substrate addition and measured after 5 mins by Ellman's method

[11] = target: Cholinesterase (Equus caballus) (UniProt P81908); experiment: Inhibition of equine serum BuChE at 10 uM using butyrylthiocholine as substrate preincubated for 5 mins followed by substrate addition and measured after 5 mins by Ellman's method relative to control; conditions: time 10.0 min
[12] = target: T1, Beta-secretase 1; conditions: dose 50.0 µM, time 60.0 min
[13] = target: T2, Cholinesterase; experiment: Inhibition of human BuchE at 1 uM using butyrylthiocholine as substrate preincubated for 5 mins followed by substrate addition and measured after 5 mins by Ellman's method relative to control; conditions: time 10.0 min
[14] = target: T3, Sodium- and chloride-dependent GABA transporter 1 (Mus musculus, UniProt P31648); experiment: Inhibition of mouse GAT1 expressed in HEK293 cell line assessed as reduction in [3H]GABA uptake incubated for 10 mins; type: cell-based
[15] = target: T4, GABA transporter 4 (Mus musculus, UniProt P31650); experiment: Inhibition of mouse GAT4 expressed in HEK293 cell line assessed as reduction in [3H]GABA uptake incubated for 10 mins; type: cell-based
T4 sequence (P31650 whole entry): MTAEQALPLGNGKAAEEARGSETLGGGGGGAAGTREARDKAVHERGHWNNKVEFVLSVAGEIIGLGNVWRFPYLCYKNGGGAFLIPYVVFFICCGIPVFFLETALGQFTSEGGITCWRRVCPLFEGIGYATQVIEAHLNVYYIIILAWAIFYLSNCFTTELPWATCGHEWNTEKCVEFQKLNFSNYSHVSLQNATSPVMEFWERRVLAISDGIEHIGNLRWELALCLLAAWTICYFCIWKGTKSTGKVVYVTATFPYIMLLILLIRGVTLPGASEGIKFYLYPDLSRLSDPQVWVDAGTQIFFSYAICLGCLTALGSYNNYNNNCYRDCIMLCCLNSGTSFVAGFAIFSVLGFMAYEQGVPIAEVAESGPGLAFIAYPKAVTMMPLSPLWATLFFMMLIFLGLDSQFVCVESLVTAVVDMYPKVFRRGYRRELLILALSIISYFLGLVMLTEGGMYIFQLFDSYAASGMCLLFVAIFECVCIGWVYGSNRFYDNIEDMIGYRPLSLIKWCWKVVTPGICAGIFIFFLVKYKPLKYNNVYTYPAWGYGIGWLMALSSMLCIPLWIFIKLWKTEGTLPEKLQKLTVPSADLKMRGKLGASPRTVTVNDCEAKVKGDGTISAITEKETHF

[16] = Neurotoxicity against mouse HT22 cells assessed as cell viability at 10 uM incubated for 24 hrs by MTT assay; type: cell-based, HT-22; conditions: ht-22, 24 h, 10 µM
[17] = target: T3, Sodium- and chloride-dependent GABA transporter 1; experiment: Inhibition of NO711 binding to mouse GAT1 expressed in HEK cell membranes incubated for 40 mins in presence of NO711 by LC-ESI-MS/MS analysis; design: species or system Membrane
[18] = target: Microtubule-associated protein tau (Homo sapiens) (UniProt P10636); experiment: Inhibition of tau aggregation (unknown origin) at 10 uM after 72 hrs by thioflavin-T fluorometric assay relative to control
[19] = target: T5, GABA transporter 4 (Mus musculus) (UniProt P31650); experiment: Inhibition of mouse GAT4 expressed in HEK293 cell line assessed as reduction in [3H]GABA uptake at 100 uM incubated for 10 mins relative to control; type: cell-based
T5 sequence (whole entry): T4 sequence (P31650 whole entry)

[20] = target: Sodium- and chloride-dependent GABA transporter 1 (Mus musculus) (UniProt P31648); experiment: Inhibition of NO711 binding to mouse GAT1 expressed in HEK cell membranes at 100 uM incubated for 40 mins in presence of NO711 by LC-ESI-MS/MS analysis relative to control; conditions: Membrane
[21] = Neurotoxicity against mouse HT22 cells assessed as cell viability at 30 uM incubated for 24 hrs by MTT assay; type: cell-based, HT-22; conditions: ht-22, 24 h, 30 µM
[22] = target: T5, GABA transporter 4 (Mus musculus); experiment: Inhibition of mouse GAT3 expressed in HEK293 cell line assessed as reduction in [3H]GABA uptake at 100 uM incubated for 10 mins relative to control; type: cell-based
[23] = target: Acetylcholinesterase (Electrophorus electricus, UniProt O42275); experiment: Inhibition of electric eel AChE using acetylthiocholine as substrate preincubated for 5 mins followed by substrate addition and measured after 5 mins by Ellman's method
[24] = target: Cholinesterase (Equus caballus) (UniProt P81908); experiment: Noncompetitive inhibition of equine serum BuChE assessed as decrease in Vmax with constant Km using varying concentrations of BTC as substrate by Lineweaver-burk and Cornish-Bowden plot analysis
[25] = target: T6, GABA transporter 3 (Mus musculus) (UniProt P31649); experiment: Inhibition of mouse GAT2 expressed in HEK293 cell line assessed as reduction in [3H]GABA uptake at 100 uM incubated for 10 mins relative to control; type: cell-based
T6 sequence (whole entry): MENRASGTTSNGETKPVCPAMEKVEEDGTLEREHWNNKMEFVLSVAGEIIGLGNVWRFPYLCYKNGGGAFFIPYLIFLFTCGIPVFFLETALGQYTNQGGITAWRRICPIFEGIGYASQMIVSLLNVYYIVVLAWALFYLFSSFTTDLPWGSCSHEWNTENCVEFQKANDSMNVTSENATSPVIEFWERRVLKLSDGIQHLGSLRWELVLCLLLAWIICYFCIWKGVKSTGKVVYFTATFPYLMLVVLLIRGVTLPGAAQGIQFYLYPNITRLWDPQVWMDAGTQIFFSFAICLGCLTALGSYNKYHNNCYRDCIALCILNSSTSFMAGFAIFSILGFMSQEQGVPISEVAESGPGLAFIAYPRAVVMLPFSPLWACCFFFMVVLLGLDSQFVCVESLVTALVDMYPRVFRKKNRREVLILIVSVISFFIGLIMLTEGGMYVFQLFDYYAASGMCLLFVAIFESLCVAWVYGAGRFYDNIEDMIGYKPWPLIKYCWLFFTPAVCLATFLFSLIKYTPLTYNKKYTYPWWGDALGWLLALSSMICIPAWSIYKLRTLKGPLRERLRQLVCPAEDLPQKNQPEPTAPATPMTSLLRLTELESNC

Chain of Acetylcholinesterase (Electrophorus electricus) (O42275 24-633 limits assumed): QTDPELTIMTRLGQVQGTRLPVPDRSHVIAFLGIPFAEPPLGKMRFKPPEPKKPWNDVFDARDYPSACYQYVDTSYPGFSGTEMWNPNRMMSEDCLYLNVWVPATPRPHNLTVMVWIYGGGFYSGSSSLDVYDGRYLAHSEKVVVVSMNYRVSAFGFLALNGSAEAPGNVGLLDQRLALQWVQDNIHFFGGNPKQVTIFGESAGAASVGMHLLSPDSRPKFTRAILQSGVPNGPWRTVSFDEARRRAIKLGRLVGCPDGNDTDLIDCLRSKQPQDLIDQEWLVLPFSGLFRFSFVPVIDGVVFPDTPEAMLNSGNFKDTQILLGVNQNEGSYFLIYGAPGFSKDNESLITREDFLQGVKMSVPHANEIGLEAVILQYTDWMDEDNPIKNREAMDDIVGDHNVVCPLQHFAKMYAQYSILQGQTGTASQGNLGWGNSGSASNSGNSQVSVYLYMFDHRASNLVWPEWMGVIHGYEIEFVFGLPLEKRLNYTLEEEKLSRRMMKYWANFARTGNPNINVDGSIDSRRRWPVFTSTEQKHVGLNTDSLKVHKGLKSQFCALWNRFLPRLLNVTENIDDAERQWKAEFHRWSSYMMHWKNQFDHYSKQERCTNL
Chain of Amyloid-beta precursor protein (Homo sapiens) (P05067 whole entry): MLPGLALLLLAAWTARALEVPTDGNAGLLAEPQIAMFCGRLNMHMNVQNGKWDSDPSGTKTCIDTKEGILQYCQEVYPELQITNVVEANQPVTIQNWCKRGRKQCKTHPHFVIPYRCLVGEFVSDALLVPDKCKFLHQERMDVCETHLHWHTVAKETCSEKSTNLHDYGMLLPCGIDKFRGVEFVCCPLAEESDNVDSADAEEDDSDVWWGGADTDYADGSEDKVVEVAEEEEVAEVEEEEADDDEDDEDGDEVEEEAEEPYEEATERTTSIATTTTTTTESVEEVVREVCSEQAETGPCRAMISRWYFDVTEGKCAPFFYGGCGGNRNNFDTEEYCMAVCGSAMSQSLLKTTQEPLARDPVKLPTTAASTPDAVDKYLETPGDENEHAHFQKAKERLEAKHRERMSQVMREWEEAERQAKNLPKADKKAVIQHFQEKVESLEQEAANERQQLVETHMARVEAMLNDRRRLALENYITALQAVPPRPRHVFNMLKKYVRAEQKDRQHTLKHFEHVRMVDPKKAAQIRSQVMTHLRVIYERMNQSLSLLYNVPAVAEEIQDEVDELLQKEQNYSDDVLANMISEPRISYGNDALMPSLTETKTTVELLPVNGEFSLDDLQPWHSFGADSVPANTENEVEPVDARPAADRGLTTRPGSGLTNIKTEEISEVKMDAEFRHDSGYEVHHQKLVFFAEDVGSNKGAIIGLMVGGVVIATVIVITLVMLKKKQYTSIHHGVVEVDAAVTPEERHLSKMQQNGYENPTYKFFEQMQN
T1 sequence (P56817 whole entry): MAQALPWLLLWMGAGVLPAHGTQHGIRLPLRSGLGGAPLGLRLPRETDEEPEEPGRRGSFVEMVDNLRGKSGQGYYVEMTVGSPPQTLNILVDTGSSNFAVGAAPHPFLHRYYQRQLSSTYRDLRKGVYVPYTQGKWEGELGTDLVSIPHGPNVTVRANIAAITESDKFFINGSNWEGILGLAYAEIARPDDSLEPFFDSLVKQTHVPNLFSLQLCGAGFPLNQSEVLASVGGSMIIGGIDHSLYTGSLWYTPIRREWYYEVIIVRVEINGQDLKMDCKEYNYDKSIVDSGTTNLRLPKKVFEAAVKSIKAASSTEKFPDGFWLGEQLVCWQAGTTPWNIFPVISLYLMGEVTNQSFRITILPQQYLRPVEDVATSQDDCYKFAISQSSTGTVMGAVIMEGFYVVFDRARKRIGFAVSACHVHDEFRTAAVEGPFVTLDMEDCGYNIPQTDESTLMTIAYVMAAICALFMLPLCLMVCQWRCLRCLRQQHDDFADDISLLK
T2 sequence (P06276 whole entry): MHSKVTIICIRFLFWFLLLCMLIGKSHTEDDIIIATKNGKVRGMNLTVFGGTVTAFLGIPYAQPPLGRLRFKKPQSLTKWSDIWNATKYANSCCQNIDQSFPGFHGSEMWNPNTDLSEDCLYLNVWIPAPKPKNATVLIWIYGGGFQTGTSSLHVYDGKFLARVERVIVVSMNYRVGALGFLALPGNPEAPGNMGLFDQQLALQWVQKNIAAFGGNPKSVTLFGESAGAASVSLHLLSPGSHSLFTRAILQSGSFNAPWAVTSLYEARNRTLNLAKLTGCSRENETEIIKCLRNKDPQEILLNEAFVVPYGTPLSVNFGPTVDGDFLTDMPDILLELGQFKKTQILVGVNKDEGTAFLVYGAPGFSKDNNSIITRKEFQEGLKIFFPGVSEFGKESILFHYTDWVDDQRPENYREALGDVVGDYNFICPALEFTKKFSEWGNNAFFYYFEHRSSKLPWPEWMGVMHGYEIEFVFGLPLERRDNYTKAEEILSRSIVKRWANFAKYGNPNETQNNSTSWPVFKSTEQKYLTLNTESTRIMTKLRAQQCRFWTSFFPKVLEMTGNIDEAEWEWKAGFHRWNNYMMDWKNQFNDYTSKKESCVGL
Chain of Cholinesterase (Equus caballus, UniProt P81908) (P81908 whole entry): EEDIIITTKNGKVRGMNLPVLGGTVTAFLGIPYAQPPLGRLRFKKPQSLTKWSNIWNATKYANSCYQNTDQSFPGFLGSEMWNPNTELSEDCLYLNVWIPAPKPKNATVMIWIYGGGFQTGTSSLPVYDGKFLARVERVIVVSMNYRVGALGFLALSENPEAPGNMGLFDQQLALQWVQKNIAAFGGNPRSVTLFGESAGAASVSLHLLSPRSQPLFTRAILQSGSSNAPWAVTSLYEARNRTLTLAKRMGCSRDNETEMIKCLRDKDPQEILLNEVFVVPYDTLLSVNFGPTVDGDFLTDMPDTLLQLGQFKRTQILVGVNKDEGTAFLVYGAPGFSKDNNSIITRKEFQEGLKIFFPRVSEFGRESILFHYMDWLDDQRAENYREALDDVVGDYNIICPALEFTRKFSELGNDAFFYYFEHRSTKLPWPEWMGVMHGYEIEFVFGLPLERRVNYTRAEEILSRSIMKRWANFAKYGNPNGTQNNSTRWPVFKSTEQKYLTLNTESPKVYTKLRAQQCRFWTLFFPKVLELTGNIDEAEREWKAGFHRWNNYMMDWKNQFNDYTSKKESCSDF
Chain of Cytochrome P450 3A4 (P08684 whole entry): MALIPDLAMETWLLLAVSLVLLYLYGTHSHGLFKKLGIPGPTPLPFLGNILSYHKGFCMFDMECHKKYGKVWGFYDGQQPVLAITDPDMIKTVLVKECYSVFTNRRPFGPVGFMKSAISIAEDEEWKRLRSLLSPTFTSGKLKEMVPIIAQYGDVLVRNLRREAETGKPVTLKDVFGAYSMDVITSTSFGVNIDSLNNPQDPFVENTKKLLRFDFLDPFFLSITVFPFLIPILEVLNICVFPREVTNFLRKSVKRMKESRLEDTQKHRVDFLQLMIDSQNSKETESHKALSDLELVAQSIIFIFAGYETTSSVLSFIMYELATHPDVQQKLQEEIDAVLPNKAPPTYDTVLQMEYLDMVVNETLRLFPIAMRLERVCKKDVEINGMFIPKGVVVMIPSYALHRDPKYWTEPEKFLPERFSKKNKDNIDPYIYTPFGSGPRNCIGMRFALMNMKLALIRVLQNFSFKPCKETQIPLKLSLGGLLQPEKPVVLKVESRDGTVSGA
Chain of Cholinesterase (Equus caballus) (P81908 whole entry): as the sequence (P81908 whole entry) above

In the case of `CC(C)c1cccc(CNC[C@@H](O)[C@H](Cc2ccccc2)NC(=O)CC(c2ccccc2)c2ccccc2)c1`, the inhibition [1] is reported as 24%, the “inhibition (INH)” value [2] is reported as “Active” and the IC50 [3] is reported as 4.6 µM. For the same compound, the Activity [4] was “Non-Toxic”, the IC50 [5] was 0.5 µM and the Activity [6] was “Toxic”. For the same compound, the inhibition [7] was 20.5%, the “inhibition (INH)” value [8] was “Active” and the remaining at 2 h [9] was 67.9%. It also gave an IC50 [10] of 0.65 µM.

Compound `CC(C)(NC[C@@H](O)[C@H](Cc1ccccc1)NC(=O)C(c1ccccc1)c1ccccc1)c1ccccc1` has an inhibition [11] of 45.9%, an inhibition [1] of under 10% and an inhibition [12] of 76.1%. The inhibition [7] was 20.5% and the inhibition [13] was under 10%.

For `O[C@@H](CNCc1ccccc1)[C@H](Cc1ccccc1)NCCC(c1ccccc1)c1ccccc1`, the IC50 [14] was 7.59 µM, the IC50 [15] was 5.5 µM and the Activity [16] was “Toxic”. For the same compound, the IC50 [17] was 30.2 µM, the inhibition [18] was 85.8% and the inhibition [1] was under 10%. The IC50 [5] was 0.63 µM, the inhibition [12] was 58% and the inhibition [7] was 34.7%. For the same compound, the IC50 [10] was 0.65 µM.

With `CC(C)(C)c1cccc(CNC[C@@H](O)[C@H](Cc2ccccc2)NC(=O)C(c2ccccc2)c2ccccc2)c1` the IC50 [14] was 11 µM, the inhibition [19] was 55% and the Activity [16] was “Non-Toxic”. For the same compound, the inhibition [20] was 82%, the “inhibition (INH)” value [2] was “Active” and the IC50 [3] was 5.9 µM. The Activity [4] was “Non-Toxic”, the IC50 [5] was 0.02 µM and the Activity [6] was “Toxic”. For the same compound, the Activity [21] was “Toxic”, the inhibition [7] was 20.5% and the “inhibition (INH)” value [8] was “Active”. The inhibition [22] was 55%, the IC50 [23] was 2.86 µM and the remaining at 2 h [9] was 79.6%. For the same compound, the inhibition [24] was “Active” and the IC50 [10] was 0.06 µM.

With `CC(C)(C)c1ccc(CNCC(O)[C@H](Cc2ccccc2)NC(=O)CC(c2ccccc2)c2ccccc2)cc1` (single isomer, unassigned) the Activity [16] was “Non-Toxic”, the inhibition [1] was under 10% and the IC50 [3] was 6.2 µM. The IC50 [5] was 0.88 µM, the Activity [21] was “Toxic” and the inhibition [7] was 20.5%. The IC50 [10] was 0.17 µM.

With `CC(C)(C)CNC[C@@H](O)[C@H](Cc1ccccc1)NCC(c1ccccc1)c1ccccc1` the IC50 [14] was 26.3 µM, the IC50 [15] was 9.77 µM and the IC50 [17] was 85.1 µM. It also gave an inhibition [1] of under 10%, an IC50 [5] of 0.19 µM and an inhibition [12] of 63.9%. It also gave an inhibition [7] of 34.7% and an IC50 [10] of 0.59 µM.

In the case of `O=C(CC(c1ccccc1)c1ccccc1)N[C@@H](Cc1ccccc1)[C@H](O)CNCC1CC1`, the IC50 [14] is reported as 39.8 µM, the IC50 [15] is reported as 35.5 µM and the inhibition [20] is reported as 83%. For the same compound, the inhibition [1] was under 10%, the inhibition [12] was under 10% and the inhibition [25] was 60%. For the same compound, the inhibition [7] was 20.5%, the inhibition [13] was 41.1% and the inhibition [22] was 51%. The IC50 [10] was 3.23 µM.
